{
  "source": "paper PMC12396409",
  "about": "“Screening and hit evaluation of a microbial metabolite library against the pathogenic Plasmodium falciparum and Toxoplasma gondii parasites” (International Journal for Parasitology: Drugs and Drug …, 2025)",
  "key": {"[1]": {"tested_on": "P. falciparum 3D7 parasites", "assay": "P. falciparum growth inhibition assay, 1-cycle (72 h treatment), SYBR DNA staining (library screen at 2 μg/mL and dose-response)", "type": "cell-based, Plasmodium falciparum", "details": "for activity at 2 µg/mL: Plasmodium falciparum, 3D7"}, "[2]": {"tested_on": "P. falciparum 3D7 parasites", "assay": "P. falciparum growth inhibition assay, 2-cycle (120 h treatment), delayed-death screen and dose-response", "type": "cell-based, Plasmodium falciparum", "details": "for activity at 2 µg/mL: Plasmodium falciparum, 3D7"}, "[3]": {"tested_on": "T. gondii RH strain (RH-Tub-eYFP) tachyzoites", "assay": "microbe, parasite or virus in culture", "type": "cell-based, Toxoplasma gondii", "details": "72 h, 72 h; for percent parasite growth at 2 µg/mL: Toxoplasma gondii"}, "[4]": {"details": "P. falciparum, 72 h, screen at 2 μg/mL, replicate 1, read-out: Pf_72h_%Growth_Rep1"}, "[5]": {"details": "P. falciparum, 72 h, screen at 2 μg/mL, replicate 2, read-out: Pf_72h_%Growth_Rep2"}, "[6]": {"details": "P. falciparum, 120 h, screen at 2 μg/mL, replicate 1, read-out: Pf_120h_%Growth_Rep1"}, "[7]": {"details": "P. falciparum, 120 h, screen at 2 μg/mL, replicate 2, read-out: Pf_120h_%Growth_Rep2"}, "[8]": {"details": "T. gondii, screen at 2 μg/mL, replicate 1, read-out: Tg_72h_%Growth_Rep1"}, "[9]": {"details": "T. gondii, screen at 2 μg/mL, replicate 2, read-out: Tg_72h_%Growth_Rep2"}, "[10]": {"details": "P. falciparum, 72 h, screen at 2 μg/mL, replicate 1"}, "[11]": {"details": "P. falciparum, 72 h, screen at 2 μg/mL, replicate 2"}, "[12]": {"details": "P. falciparum, 120 h, screen at 2 μg/mL, replicate 1"}, "[13]": {"details": "P. falciparum, 120 h, screen at 2 μg/mL, replicate 2"}, "[14]": {"details": "T. gondii, screen at 2 μg/mL, replicate 1"}, "[15]": {"details": "T. gondii, screen at 2 μg/mL, replicate 2"}, "[16]": {"details": "T. gondii, 2 μg/mL, values are growth (% of control)"}, "[17]": {"details": "P. falciparum 3D7, 72 h, parasite screen at 2 μg/mL, % growth, replicate 1"}, "[18]": {"details": "P. falciparum 3D7, 72 h, parasite screen at 2 μg/mL, % growth, replicate 2"}, "[19]": {"details": "P. falciparum 3D7, 120 h, parasite screen at 2 μg/mL, % growth, replicate 1"}, "[20]": {"details": "P. falciparum 3D7, 120 h, parasite screen at 2 μg/mL, % growth, replicate 2"}, "[21]": {"details": "T. gondii, parasite screen at 2 μg/mL, % growth, replicate 1"}, "[22]": {"details": "T. gondii, parasite screen at 2 μg/mL, % growth, replicate 2"}},
  "note": "Read-outs that look alike come from different tables or passages of the source.",
  "data": [
    {"molecule": "C/C=C/C1=CC(=O)[C@@H](O)[C@@H]1O", "note": "[Terrein]", "values": [
      {"measurement": "activity at 2 µg/mL", "setting": "[1]; [4]", "result": 77.7, "unit": "%"},
      {"measurement": "activity at 2 µg/mL", "setting": "[1]; [5]", "result": 91.3, "unit": "%"},
      {"measurement": "activity at 2 µg/mL", "setting": "[2]; [6]", "result": 82, "unit": "%"},
      {"measurement": "activity at 2 µg/mL", "setting": "[2]; [7]", "result": 46.1, "unit": "%"},
      {"measurement": "percent parasite growth at 2 µg/mL", "setting": "[3]; [8]", "result": 125, "unit": "%"},
      {"measurement": "percent parasite growth at 2 µg/mL", "setting": "[3]; [9]", "result": 83.6, "unit": "%"}
    ]},
    {"molecule": "C[C@@H]1CC[C@H](O)/C=C/C(=O)O[C@H](C)CC[C@H](O)/C=C/C(=O)O1", "note": "[Pyrenophorol]", "values": [
      {"measurement": "Pf_72h_%Growth_Rep1", "setting": "[1]; P. falciparum, 72 h, parasite screen 2 μg/mL, % growth, replicate 1", "result": 90.24, "unit": "%"},
      {"measurement": "Pf_72h_%Growth_Rep2", "setting": "[1]; P. falciparum, 72 h, parasite screen 2 μg/mL, % growth, replicate 2", "result": 103.36, "unit": "%"},
      {"measurement": "Pf_120h_%Growth_Rep1", "setting": "[2]; P. falciparum, 120 h, parasite screen 2 μg/mL, % growth, replicate 1", "result": 102.30, "unit": "%"},
      {"measurement": "Pf_120h_%Growth_Rep2", "setting": "[2]; P. falciparum, 120 h, parasite screen 2 μg/mL, % growth, replicate 2", "result": 75.99, "unit": "%"},
      {"measurement": "Tg_72h_%Growth_Rep1", "setting": "[3]; T. gondii, parasite screen 2 μg/mL, % growth, replicate 1", "result": 105.85, "unit": "%"},
      {"measurement": "Tg_72h_%Growth_Rep2", "setting": "[3]; T. gondii, parasite screen 2 μg/mL, % growth, replicate 2", "result": 74.43, "unit": "%"}
    ]},
    {"molecule": "CN[C@@H]1C[C@H]2O[C@@](C)([C@@H]1OC)n1c3ccccc3c3c4c(c5c6ccccc6n2c5c31)C(=O)N[C@H]4O", "note": "[UCN-01]", "values": [
      {"measurement": "Pf_72h_%Growth_Rep1", "setting": "[1]; [10]", "result": 0.68, "unit": "%"},
      {"measurement": "Pf_72h_%Growth_Rep2", "setting": "[1]; [11]", "result": -0.50, "unit": "%"},
      {"measurement": "Pf_120h_%Growth_Rep1", "setting": "[2]; [12]", "result": 24.61, "unit": "%"},
      {"measurement": "Pf_120h_%Growth_Rep2", "setting": "[2]; [13]", "result": 12.22, "unit": "%"},
      {"measurement": "Tg_72h_%Growth_Rep1", "setting": "[3]; [14]", "result": 1.44, "unit": "%"},
      {"measurement": "Tg_72h_%Growth_Rep2", "setting": "[3]; [15]", "result": 1.53, "unit": "%"}
    ]},
    {"molecule": "CCCC(=O)O[C@H]1[C@H](C)O[C@@H](O[C@H]2[C@H](N(C)C)[C@@H](O)[C@H](O[C@H]3[C@@H](CC=O)C[C@@H](C)[C@@H](O)/C=C/C=C/C[C@@H](C)OC(=O)C[C@@H](OC(C)=O)[C@@H]3OC)O[C@@H]2C)C[C@@]1(C)O", "note": "[Leucomycin A4]", "values": [
      {"measurement": "1) Growth (%) at 72 h", "setting": "[1]; P. falciparum, 2 μg/mL, 72 h", "result": 46.88, "unit": "%"},
      {"measurement": "2) Growth (%) at 120 h", "setting": "[2]; P. falciparum, 2 μg/mL, 120 h", "result": 1.51, "unit": "%"},
      {"measurement": "3) Fold change (72 h/120 h)", "setting": "[2]; P. falciparum, growth at 72 h / growth at 120 h, 2 μg/mL", "result": 31.0},
      {"measurement": "Mean", "setting": "[3]; T. gondii, 2 μg/mL, mean of both replicates, growth (% of control)", "result": 23.43},
      {"measurement": "Replicate 1", "setting": "[3]; [16]", "result": 19.43},
      {"measurement": "Replicate 2", "setting": "[3]; [16]", "result": 27.43}
    ]},
    {"molecule": "CC(=O)c1c(O)c(C)c(O)c2c1OC1=CC(=O)C(C(C)=O)C(=O)C12C", "note": "(stereo not drawn) [Usnic acid]", "values": [
      {"measurement": "activity at 2 µg/mL", "setting": "[1]; [4]", "result": 82.8, "unit": "%"},
      {"measurement": "activity at 2 µg/mL", "setting": "[1]; [5]", "result": 126, "unit": "%"},
      {"measurement": "activity at 2 µg/mL", "setting": "[2]; [6]", "result": 101, "unit": "%"},
      {"measurement": "activity at 2 µg/mL", "setting": "[2]; [7]", "result": 102, "unit": "%"},
      {"measurement": "percent parasite growth at 2 µg/mL", "setting": "[3]; [8]", "result": 115, "unit": "%"},
      {"measurement": "percent parasite growth at 2 µg/mL", "setting": "[3]; [9]", "result": 87.6, "unit": "%"}
    ]},
    {"molecule": "COc1cc(C)c(C(=O)O)c(OC)c1", "note": "[BIA-O1659]", "values": [
      {"measurement": "Pf_72h_%Growth_Rep1", "setting": "[1]; [17]", "result": 84.80, "unit": "%"},
      {"measurement": "Pf_72h_%Growth_Rep2", "setting": "[1]; [18]", "result": 98.06, "unit": "%"},
      {"measurement": "Pf_120h_%Growth_Rep1", "setting": "[2]; [19]", "result": 91.75, "unit": "%"},
      {"measurement": "Pf_120h_%Growth_Rep2", "setting": "[2]; [20]", "result": 145.28, "unit": "%"},
      {"measurement": "Tg_72h_%Growth_Rep1", "setting": "[3]; [21]", "result": 135.87, "unit": "%"},
      {"measurement": "Tg_72h_%Growth_Rep2", "setting": "[3]; [22]", "result": 85.39, "unit": "%"}
    ]},
    {"molecule": "C[C@@H]1CCCCCCCCC[C@H](OC(=O)CCC(=O)O)C(=O)/C=C/C(=O)O1", "note": "[A 26771B]", "values": [
      {"measurement": "Pf_72h_%Growth_Rep1", "setting": "[1]; library screen at 2 μg/mL, 72 h, % growth, replicate 1", "result": 82.59, "unit": "%"},
      {"measurement": "Pf_72h_%Growth_Rep2", "setting": "[1]; library screen at 2 μg/mL, 72 h, % growth, replicate 2", "result": 86.99, "unit": "%"},
      {"measurement": "Pf_120h_%Growth_Rep1", "setting": "[2]; library screen at 2 μg/mL, 120 h, % growth, replicate 1", "result": 86.96, "unit": "%"},
      {"measurement": "Pf_120h_%Growth_Rep2", "setting": "[2]; library screen at 2 μg/mL, 120 h, % growth, replicate 2", "result": 89.23, "unit": "%"},
      {"measurement": "Tg_72h_%Growth_Rep1", "setting": "[3]; library screen at 2 μg/mL, % growth, replicate 1", "result": 90.42, "unit": "%"},
      {"measurement": "Tg_72h_%Growth_Rep2", "setting": "[3]; library screen at 2 μg/mL, % growth, replicate 2", "result": 102.55, "unit": "%"}
    ]},
    {"molecule": "CC=CC(C)=CC(C)C(=O)CC(O)CC1CC(=O)NC(=O)C1", "note": "(stereo not drawn) [BIA-M1404]", "values": [
      {"measurement": "Pf_72h_%Growth_Rep1", "setting": "[1]; [17]", "result": 71.61, "unit": "%"},
      {"measurement": "Pf_72h_%Growth_Rep2", "setting": "[1]; [18]", "result": 88.22, "unit": "%"},
      {"measurement": "Pf_120h_%Growth_Rep1", "setting": "[2]; [19]", "result": 85.21, "unit": "%"},
      {"measurement": "Pf_120h_%Growth_Rep2", "setting": "[2]; [20]", "result": 78.18, "unit": "%"},
      {"measurement": "Tg_72h_%Growth_Rep1", "setting": "[3]; [21]", "result": 4.29, "unit": "%"},
      {"measurement": "Tg_72h_%Growth_Rep2", "setting": "[3]; [22]", "result": 7.26, "unit": "%"}
    ]},
    {"molecule": "C=Cc1cc(OC)c2c(c1)c(=O)oc1c2cc(OC)c2c(O)ccc([C@H]3O[C@@H](C)[C@@H](O)[C@](C)(O)[C@@H]3O)c21", "note": "[Chrysomycin A]", "values": [
      {"measurement": "1) Growth (%) at 72 h", "setting": "[1]; P. falciparum, 2 μg/mL, 72 h", "result": 36.94, "unit": "%"},
      {"measurement": "Mean", "setting": "[1]; P. falciparum, 72 h, 2 μg/mL, mean of both replicates, growth (% of control)", "result": 36.94},
      {"measurement": "Pf_72h_%Growth_Rep1", "setting": "[1]; [10]", "result": 16.21, "unit": "%"},
      {"measurement": "Pf_72h_%Growth_Rep2", "setting": "[1]; [11]", "result": 57.66, "unit": "%"},
      {"measurement": "2) Growth (%) at 120 h", "setting": "[2]; P. falciparum, 2 μg/mL, 120 h", "result": -1.07, "unit": "%"},
      {"measurement": "Pf_120h_%Growth_Rep1", "setting": "[2]; [12]", "result": 6.31, "unit": "%"},
      {"measurement": "Pf_120h_%Growth_Rep2", "setting": "[2]; [13]", "result": -8.44, "unit": "%"},
      {"measurement": "Tg_72h_%Growth_Rep1", "setting": "[3]; [14]", "result": 53.94, "unit": "%"},
      {"measurement": "Tg_72h_%Growth_Rep2", "setting": "[3]; [15]", "result": 65.86, "unit": "%"}
    ]}
  ]
}
